In series [1] the target is T1, Toll-like receptor 2 (Homo sapiens, UniProt O60603). Briefly: Agonist activity at human TLR2 expressed in HEK-Blue hTLR2 cells as SEAP expression incubated for 16 hrs by SEAP-based plate reader analysis. The format is cell-based.
Series [2] in a line: Cytotoxicity against human HEK-Blue hTLR2 cells assessed as reduction in cell viability at 100 uM incubated for 24 hrs by CCK8 assay. Format: toxicity, cell-based. Particulars: hek-blue htlr2, 24 h.
The target of series [3] is T1, Toll-like receptor 2. Briefly: Agonist activity at human TLR2 expressed in HEK-Blue hTLR2 cells assessed as activation of TLR2-triggered SEAP signaling up to 10 uM incubated for 16 hrs by SEAP-based plate reader analysis. Format: cell-based. As to conditions: filed as agonist.
The subject of series [4] is THP-1. Briefly: Upregulation of MyD88 protein expression in human PMA-differentiated THP-1 cells at 100 nM by Western blotting analysis. Format: functional, cell-based. As to conditions: time 0-120 min, TDE = time-dependent effect.
The test system of series [5] is THP-1. Briefly: Induction of JNK phosphorylation in human PMA-differentiated THP-1 cells at 100 nM incubated up to 120 mins by Western blotting analysis. Format: functional, cell-based.
Series [6] has as its system THP-1. Briefly: Induction of TNFalpha production in human PMA-differentiated THP-1 cells supernatant incubated for 4 hrs by ELISA method. The format is functional, cell-based. In general terms: In an ELISA, binding on a coated surface is turned into a signal by an enzyme label.
For series [7], the system named is THP-1. Briefly: Cytotoxicity against human THP1 cells assessed as reduction in cell viability at 100 uM incubated for 24 hrs by CCK8 assay. Format: toxicity, cell-based. Particulars: thp-1, 24 h.
Series [8] relates to THP-1. Briefly: Induction of p65 phosphorylation in human PMA-differentiated THP-1 cells at 100 nM incubated up to 120 mins by Western blotting analysis. The format is functional, cell-based.
In series [9] the target is T1, Toll-like receptor 2. Briefly: Agonist activity at human TLR2 expressed in HEK-Blue hTLR2 cells assessed as activation of TLR2-triggered SEAP signaling at 0.1 uM incubated for 16 hrs in presence of anti-hTLR1 by SEAP-based plate reader analysis. The format is cell-based.
The subject of series [10] is THP-1. Briefly: Induction of IL6 production in human PMA-differentiated THP-1 cells supernatant incubated for 4 hrs by ELISA method. The format is functional, cell-based.
Series [11] concerns the target T1, Toll-like receptor 2. Briefly: Agonist activity at human TLR2 expressed in HEK-Blue hTLR2 cells assessed as activation of TLR2-triggered SEAP signaling at 0.1 uM incubated for 16 hrs in presence of anti-hTLR2 by SEAP-based plate reader analysis. The format is cell-based.
Series [12] relates to THP-1. Briefly: Induction of IL1beta production in human PMA-differentiated THP-1 cells supernatant incubated for 4 hrs by ELISA method. The format is functional, cell-based.
For series [13], the system named is THP-1. Briefly: Induction of p38 phosphorylation in human PMA-differentiated THP-1 cells at 100 nM incubated up to 120 mins by Western blotting analysis. Format: functional, cell-based. Background: In western blotting, separated proteins are transferred to a membrane and probed.

Active and inactive are the calls of the source. No cut-off for these calls is given here.

T1 sequence (O60603 whole entry): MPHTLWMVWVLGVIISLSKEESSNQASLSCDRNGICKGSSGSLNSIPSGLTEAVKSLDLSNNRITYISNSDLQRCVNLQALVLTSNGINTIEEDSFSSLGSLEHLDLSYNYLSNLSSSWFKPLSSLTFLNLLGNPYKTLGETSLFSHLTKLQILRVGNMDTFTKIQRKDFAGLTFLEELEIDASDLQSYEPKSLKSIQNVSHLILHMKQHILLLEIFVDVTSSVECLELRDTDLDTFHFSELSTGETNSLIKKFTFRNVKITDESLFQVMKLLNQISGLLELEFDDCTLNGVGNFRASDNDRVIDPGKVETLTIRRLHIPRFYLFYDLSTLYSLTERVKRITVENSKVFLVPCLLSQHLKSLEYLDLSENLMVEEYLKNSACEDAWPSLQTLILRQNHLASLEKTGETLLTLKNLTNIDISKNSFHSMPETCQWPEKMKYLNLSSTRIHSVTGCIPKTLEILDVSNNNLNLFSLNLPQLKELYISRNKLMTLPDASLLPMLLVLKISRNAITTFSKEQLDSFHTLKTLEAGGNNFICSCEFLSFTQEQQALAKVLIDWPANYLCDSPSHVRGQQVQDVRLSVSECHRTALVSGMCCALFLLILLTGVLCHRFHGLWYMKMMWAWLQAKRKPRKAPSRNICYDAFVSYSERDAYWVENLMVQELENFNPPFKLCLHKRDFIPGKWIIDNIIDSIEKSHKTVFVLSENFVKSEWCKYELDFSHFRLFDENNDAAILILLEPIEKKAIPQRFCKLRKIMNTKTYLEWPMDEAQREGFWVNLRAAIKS

With `CC(C)CC1CN(C(=O)c2ccc(C(=O)N3C[C@@H](C(=O)N[C@H]4C[C@@H]4c4ccccc4)[C@H](C(=O)N[C@H]4C[C@@H]4c4ccccc4)C3)cc2)CC1C(=O)N[C@H]1C[C@@H]1c1ccccc1` (stereo not given in full), the EC50 (usually the concentration giving half of the maximal effect) in [1] was 286 nM.

As to `CCCC1CN(C(=O)c2ccc(C(=O)N3CC(CCC)[C@H](C(=O)N[C@H]4C[C@@H]4c4ccccc4)C3)cc2)CC1C(=O)N[C@H]1C[C@@H]1c1ccccc1` (stereo not given in full), in series [1], the EC50 is more than 5000 nM.

On to `CCCC1CN(C(=O)c2ccc(C(=O)N3C[C@@H](C(=O)N[C@H]4C[C@@H]4c4ccccc4)[C@H](C(=O)N[C@H]4C[C@@H]4c4ccccc4)C3)cc2)CC1C(=O)N[C@H]1C[C@@H]1c1ccccc1` (stereo not given in full), for which the EC50 in [1] worked out at 107 nM.

In the case of `CC(C)C1CN(C(=O)c2ccc(C(=O)N3C[C@@H](C(=O)N[C@H]4C[C@@H]4c4ccccc4)[C@H](C(=O)N[C@H]4C[C@@H]4c4ccccc4)C3)cc2)CC1C(=O)N[C@H]1C[C@@H]1c1ccccc1` (stereo not given in full), in series [1], the concentration for a half-maximal effect (EC50) turned out to be 702 nM.

Take `CCC[C@H]1CN(C(=O)c2ccc(C(=O)N3C[C@@H](C(=O)N[C@H]4C[C@@H]4c4ccccc4)[C@H](C(=O)N[C@H]4C[C@@H]4c4ccccc4)C3)cc2)C[C@@H]1C(=O)N[C@H]1C[C@@H]1c1ccccc1`: in series [1], a half-maximal response (EC50) required 87 nM. This EC50 is about 8.1-fold lower than that of the compound before.

With `CCCC[C@H]1CN(C(=O)c2ccc(C(=O)N3C[C@@H](C(=O)N[C@H]4C[C@@H]4c4ccccc4)[C@H](C(=O)N[C@H]4C[C@@H]4c4ccccc4)C3)cc2)C[C@@H]1C(=O)N[C@H]1C[C@@H]1c1ccccc1`, the Activity entry was “Non-Toxic” in series [2]; “Tde” in [4]; “Dose-Dependent Effect” in series [6]; “Non-Toxic” in series [7]; “Dose-Dependent Effect” in series [10]; “Dose-Dependent Effect” in [12]. For the same compound, the outcome in series [3], in series [5], in series [8] and in series [13] was Active. In series [1], a half-maximal effect (EC50) was put at 35 nM. Besides, the outcome in series [9] and in series [11] was inactive.

Take `CC(C)CC1CN(C(=O)c2ccc(C(=O)N3CC(CC(C)C)[C@H](C(=O)N[C@H]4C[C@@H]4c4ccccc4)C3)cc2)CC1C(=O)N[C@H]1C[C@@H]1c1ccccc1` (stereo not given in full): the concentration giving a half-maximal response (EC50) in series [1] was more than 5000 nM.

Consider `CCCC[C@@H]1CN(C(=O)c2ccc(C(=O)N3C[C@@H](C(=O)N[C@H]4C[C@@H]4c4ccccc4)[C@H](C(=O)N[C@H]4C[C@@H]4c4ccccc4)C3)cc2)C[C@H]1C(=O)N[C@H]1C[C@@H]1c1ccccc1`, for which the Activity result in series [2] was “Non-Toxic”; in series [4] it was “Tde”; in series [6], “Dose-Dependent Effect”; in series [7] it was “Non-Toxic”; in series [10] it was “Dose-Dependent Effect”; in series [12] it was “Dose-Dependent Effect”. Also, the result in [3], in [5], in [8] and in series [13] was Active. This compound had an EC50 in series [1] of 39 nM. The outcome in [9] and in series [11] was inactive.

`CCCCC1CN(C(=O)c2ccc(C(=O)N3CC(CCCC)[C@H](C(=O)N[C@H]4C[C@@H]4c4ccccc4)C3)cc2)CC1C(=O)N[C@H]1C[C@@H]1c1ccccc1` (stereo not given in full) showed an EC50 in [1] of 1500 nM.

With `O=C(N[C@H]1C[C@@H]1c1ccccc1)C1CN(C(=O)c2ccc(C(=O)N3C[C@@H](C(=O)N[C@H]4C[C@@H]4c4ccccc4)[C@H](C(=O)N[C@H]4C[C@@H]4c4ccccc4)C3)cc2)CC1CO` (stereo not given in full), in series [1], the EC50 is more than 5000 nM.

In series [1], `CC1CN(C(=O)c2ccc(C(=O)N3C[C@@H](C(=O)N[C@H]4C[C@@H]4c4ccccc4)[C@H](C(=O)N[C@H]4C[C@@H]4c4ccccc4)C3)cc2)CC1C(=O)N[C@H]1C[C@@H]1c1ccccc1` (stereo not given in full) returned an EC50 of 700 nM.

In series [1], `CC(C)C1CN(C(=O)c2ccc(C(=O)N3CC(C(C)C)[C@H](C(=O)N[C@H]4C[C@@H]4c4ccccc4)C3)cc2)CC1C(=O)N[C@H]1C[C@@H]1c1ccccc1` (stereo not given in full) registered an EC50 of more than 5000 nM.

The compound `CCC[C@@H]1CN(C(=O)c2ccc(C(=O)N3C[C@@H](C(=O)N[C@H]4C[C@@H]4c4ccccc4)[C@H](C(=O)N[C@H]4C[C@@H]4c4ccccc4)C3)cc2)C[C@H]1C(=O)N[C@H]1C[C@@H]1c1ccccc1` gave an EC50 in series [1] of 177 nM.

On to `CCC1CN(C(=O)c2ccc(C(=O)N3CC(CC)[C@H](C(=O)N[C@H]4C[C@@H]4c4ccccc4)C3)cc2)CC1C(=O)N[C@H]1C[C@@H]1c1ccccc1` (stereo not given in full), for which the EC50 in series [1] was more than 5000 nM.

In series [1], `CCC1CN(C(=O)c2ccc(C(=O)N3C[C@@H](C(=O)N[C@H]4C[C@@H]4c4ccccc4)[C@H](C(=O)N[C@H]4C[C@@H]4c4ccccc4)C3)cc2)CC1C(=O)N[C@H]1C[C@@H]1c1ccccc1` (stereo not given in full) gave an EC50 of 514 nM.

In series [1], `O=C(N[C@H]1C[C@@H]1c1ccccc1)[C@H]1CCN(C(=O)c2ccc(C(=O)N3C[C@@H](C(=O)N[C@H]4C[C@@H]4c4ccccc4)[C@H](C(=O)N[C@H]4C[C@@H]4c4ccccc4)C3)cc2)C1` had an EC50 of more than 5000 nM.

`CCCCC1CN(C(=O)c2ccc(C(=O)N3C[C@@H](C(=O)N[C@H]4C[C@@H]4c4ccccc4)[C@H](C(=O)N[C@H]4C[C@@H]4c4ccccc4)C3)cc2)CC1C(=O)N[C@H]1C[C@@H]1c1ccccc1` (stereo not given in full): the EC50 in series [1] turned out to be 37 nM.

`O=C(N[C@H]1C[C@@H]1c1ccccc1)C1CN(C(=O)c2ccc(C(=O)N3C[C@@H](C(=O)N[C@H]4C[C@@H]4c4ccccc4)[C@H](C(=O)N[C@H]4C[C@@H]4c4ccccc4)C3)cc2)CC1CF` (stereo not given in full) had a concentration giving a half-maximal response (EC50) in [1] of more than 5000 nM.

In [1], `CC1CN(C(=O)c2ccc(C(=O)N3CC(C)[C@H](C(=O)N[C@H]4C[C@@H]4c4ccccc4)C3)cc2)CC1C(=O)N[C@H]1C[C@@H]1c1ccccc1` (stereo not given in full) had an EC50 of more than 5000 nM.

Take `O=C(N[C@H]1C[C@@H]1c1ccccc1)C1CN(C(=O)c2ccc(C(=O)N3C[C@@H](C(=O)N[C@H]4C[C@@H]4c4ccccc4)[C@H](C(=O)N[C@H]4C[C@@H]4c4ccccc4)C3)cc2)C1`: the EC50 in series [1] was more than 5000 nM.

In series [1], `O=C(N[C@H]1C[C@@H]1c1ccccc1)C1CCN(C(=O)c2ccc(C(=O)N3C[C@@H](C(=O)N[C@H]4C[C@@H]4c4ccccc4)[C@H](C(=O)N[C@H]4C[C@@H]4c4ccccc4)C3)cc2)CC1` registered an EC50 of more than 5000 nM.

The values above are taken from ChEMBL document CHEMBL5352437, “Identification and immunological evaluation of novel TLR2 agonists through structural optimization of Diprovocim” (Eur J Med Chem, 2022).
